Source: patent publication EP0371730A1, “Dopamine-B-Hydroxylase inhibitors” (SMITHKLINE BEECHAM CORPORATION, priority 1988, dated 1990)

What was measured:
[1] = see Teresawa et al.; cited from earlier work
[2] = tested on: spontaneously hypertensive rats; assay: mean arterial blood pressure in spontaneously hypertensive rats; format: in vivo; details: 50 mg/kg intraperitoneally, compared to vehicle-treated controls
Method: Further, spontaneously hypertensive rats were treated with 1-(2-imidazolylmethyl)-1,3-dihydro-2H-imidazole-2-thione at a dose of 50 mg/kg intraperitoneally, and mean arterial blood pressure was monitored for 250 minutes using indwelling cannulae in the tail arteries. […] The maximal blood pressure reduction was approximately 40 mmHg.

DBH = molecular target: T1, DBH (Homo sapiens, UniProt P09172); details: as reported by Runti et al.; cited from earlier work
T1 sequence (P09172 1-617): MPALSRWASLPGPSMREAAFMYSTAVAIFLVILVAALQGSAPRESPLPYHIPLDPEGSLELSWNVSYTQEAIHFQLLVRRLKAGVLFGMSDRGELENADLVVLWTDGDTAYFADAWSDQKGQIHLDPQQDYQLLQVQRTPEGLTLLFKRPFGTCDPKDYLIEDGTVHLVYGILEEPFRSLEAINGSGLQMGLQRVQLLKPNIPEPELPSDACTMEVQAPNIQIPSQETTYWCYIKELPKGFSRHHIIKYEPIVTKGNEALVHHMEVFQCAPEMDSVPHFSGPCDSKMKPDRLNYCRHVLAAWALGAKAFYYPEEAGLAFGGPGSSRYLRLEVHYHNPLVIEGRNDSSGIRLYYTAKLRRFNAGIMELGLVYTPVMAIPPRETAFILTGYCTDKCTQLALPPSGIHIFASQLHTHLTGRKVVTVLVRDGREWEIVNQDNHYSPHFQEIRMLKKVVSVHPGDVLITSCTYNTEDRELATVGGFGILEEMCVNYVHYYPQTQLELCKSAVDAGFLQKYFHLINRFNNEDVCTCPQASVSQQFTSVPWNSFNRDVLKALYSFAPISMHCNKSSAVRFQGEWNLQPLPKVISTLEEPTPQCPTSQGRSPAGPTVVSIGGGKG

CCCCc1ccc(C(=O)O)nc1 [Fusaric acid]
hepatotoxicity [1]: hepatotoxic

S=c1[nH]ccn1Cc1ncc[nH]1 [1-(2-Imidazolylmethyl)-1,3-dihydro-2H-imidazole-2-thione]
time to significant blood pressure reductions following treatment [2]: ≤ 30 min | maximal blood pressure reduction ([2]; mean arterial blood pressure monitored for 250 minutes): approximately 40 mmHg

phenylpicolinic acid
inhibitory activity relative to fusaric acid (DBH): twice the inhibitory activity of fusaric acid
